Laboratory results from the kinase profiling compilation of Christmann-Franck et al. (2016).
Values belong to the compound of their own block, whether it stands above or below them.

Columns and labels:
Assay in all cases: KINOMEscan competition binding
Conditions in all cases: compound 10.0 µM
[1] = target: MAP3K11 (human) (UniProt Q16584)
[2] = target: PIM3 (human) (UniProt Q86V86)
[3] = tested on: FLT3 (human), P36888 [D835Y]
[4] = tested on: PIK3CA (human), P42336 [Q546K]
[5] = target: CDK11B (human) (UniProt P21127)
Chain of CDK11B (human) (P21127 whole entry, looked up): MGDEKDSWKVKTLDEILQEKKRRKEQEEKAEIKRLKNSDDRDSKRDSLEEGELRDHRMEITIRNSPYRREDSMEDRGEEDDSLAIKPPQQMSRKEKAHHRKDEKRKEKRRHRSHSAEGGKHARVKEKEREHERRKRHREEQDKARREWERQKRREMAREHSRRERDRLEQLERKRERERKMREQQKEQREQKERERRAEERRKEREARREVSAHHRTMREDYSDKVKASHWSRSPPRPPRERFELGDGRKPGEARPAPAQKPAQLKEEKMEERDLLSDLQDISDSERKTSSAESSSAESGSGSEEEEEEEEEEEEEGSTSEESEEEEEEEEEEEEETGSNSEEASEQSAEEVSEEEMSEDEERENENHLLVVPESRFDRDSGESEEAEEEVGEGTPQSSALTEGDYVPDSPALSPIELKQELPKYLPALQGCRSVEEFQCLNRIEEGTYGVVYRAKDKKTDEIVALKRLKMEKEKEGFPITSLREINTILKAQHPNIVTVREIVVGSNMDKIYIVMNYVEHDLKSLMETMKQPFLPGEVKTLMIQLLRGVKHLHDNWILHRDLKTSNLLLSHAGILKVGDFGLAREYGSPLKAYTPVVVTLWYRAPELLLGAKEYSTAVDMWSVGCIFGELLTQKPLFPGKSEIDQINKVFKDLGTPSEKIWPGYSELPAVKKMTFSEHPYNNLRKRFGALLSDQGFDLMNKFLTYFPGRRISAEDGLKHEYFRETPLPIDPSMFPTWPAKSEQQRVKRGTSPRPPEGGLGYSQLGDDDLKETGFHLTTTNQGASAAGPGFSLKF

[6] = target: RIOK3 (human) (UniProt O14730)
Chain of RIOK3 (human) (O14730 whole entry, looked up): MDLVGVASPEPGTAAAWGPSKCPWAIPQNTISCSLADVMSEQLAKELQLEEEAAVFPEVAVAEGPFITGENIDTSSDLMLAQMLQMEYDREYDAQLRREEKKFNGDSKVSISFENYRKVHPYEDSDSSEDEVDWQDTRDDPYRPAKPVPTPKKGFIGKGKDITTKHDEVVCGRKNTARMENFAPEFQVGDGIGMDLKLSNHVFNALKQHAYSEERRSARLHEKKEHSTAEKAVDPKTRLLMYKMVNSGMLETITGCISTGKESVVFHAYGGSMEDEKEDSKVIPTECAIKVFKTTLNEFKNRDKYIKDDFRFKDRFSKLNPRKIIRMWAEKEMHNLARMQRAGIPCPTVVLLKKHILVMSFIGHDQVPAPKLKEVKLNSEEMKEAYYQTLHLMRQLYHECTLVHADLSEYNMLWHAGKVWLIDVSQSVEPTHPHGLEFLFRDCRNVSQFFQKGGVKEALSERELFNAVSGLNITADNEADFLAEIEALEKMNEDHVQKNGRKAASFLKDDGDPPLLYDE

[7] = target: MAPK7 (human) (UniProt Q13164)
[8] = target: STK39 (human) (UniProt Q9UEW8)
[9] = target: PHKG1 (human) (UniProt Q16816)
[10] = tested on: EIF2AK4 KD2 (human), Q9P2K8 [S808G]
[11] = target: PI4KB (human) (UniProt Q9UBF8)
[12] = target: MATK (human) (UniProt P42679)
[13] = target: CAMK2D (human) (UniProt Q13557)
[14] = target: MAST1 (human) (UniProt Q9Y2H9)
[15] = target: MYLK3 (human) (UniProt Q32MK0)
[16] = target: GRK1 (human) (UniProt Q15835)
[17] = target: PRKD1 (human) (UniProt Q15139)
[18] = target: RPS6KA6 KD2 (human) (UniProt Q9UK32)
[19] = target: TYK2 JH1 catalytic (human) (UniProt P29597)
[20] = target: RIPK2 (human) (UniProt O43353)
[21] = target: LTK (human) (UniProt P29376)
[22] = target: FRK (human) (UniProt P42685)
[23] = target: MET (human) (UniProt P08581)
[24] = tested on: RET (human), P07949 [V804L]
[25] = target: MARK3 (human) (UniProt P27448)
[26] = target: DYRK1B (human) (UniProt Q9Y463)
[27] = target: ABL2 (human) (UniProt P42684)
Chain of ABL2 (human) (P42684 whole entry, looked up): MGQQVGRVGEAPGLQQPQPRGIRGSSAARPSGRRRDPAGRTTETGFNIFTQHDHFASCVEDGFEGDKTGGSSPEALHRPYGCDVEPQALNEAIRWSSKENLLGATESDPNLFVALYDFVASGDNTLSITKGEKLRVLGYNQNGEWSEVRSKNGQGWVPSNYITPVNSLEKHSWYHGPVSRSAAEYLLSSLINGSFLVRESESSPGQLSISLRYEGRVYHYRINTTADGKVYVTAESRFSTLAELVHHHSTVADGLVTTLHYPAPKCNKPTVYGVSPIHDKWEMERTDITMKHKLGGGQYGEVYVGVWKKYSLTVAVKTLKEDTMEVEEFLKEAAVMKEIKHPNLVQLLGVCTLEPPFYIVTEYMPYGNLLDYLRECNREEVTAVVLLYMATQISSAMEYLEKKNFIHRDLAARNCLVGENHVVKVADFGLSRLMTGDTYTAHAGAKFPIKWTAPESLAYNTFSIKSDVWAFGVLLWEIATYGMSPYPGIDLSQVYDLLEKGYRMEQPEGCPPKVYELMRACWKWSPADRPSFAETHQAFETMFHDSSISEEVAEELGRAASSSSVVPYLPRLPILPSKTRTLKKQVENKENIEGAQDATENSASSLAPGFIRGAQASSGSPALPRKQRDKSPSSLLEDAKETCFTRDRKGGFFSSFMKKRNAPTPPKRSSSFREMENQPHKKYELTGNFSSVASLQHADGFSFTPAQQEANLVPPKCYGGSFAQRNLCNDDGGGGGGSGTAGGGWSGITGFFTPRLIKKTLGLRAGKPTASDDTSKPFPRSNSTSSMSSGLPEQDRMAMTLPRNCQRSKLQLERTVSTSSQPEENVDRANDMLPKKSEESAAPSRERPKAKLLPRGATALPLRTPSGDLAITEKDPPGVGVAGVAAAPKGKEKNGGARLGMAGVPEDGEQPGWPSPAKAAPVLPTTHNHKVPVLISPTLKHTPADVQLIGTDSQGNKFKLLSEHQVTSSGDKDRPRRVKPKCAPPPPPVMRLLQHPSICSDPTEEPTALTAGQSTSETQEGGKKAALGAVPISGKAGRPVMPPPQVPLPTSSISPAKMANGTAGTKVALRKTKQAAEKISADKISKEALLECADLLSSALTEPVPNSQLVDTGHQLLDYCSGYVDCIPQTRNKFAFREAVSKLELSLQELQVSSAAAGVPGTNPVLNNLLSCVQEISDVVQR

[28] = target: PIK3CA (human) (UniProt P42336)
[29] = target: MELK (human) (UniProt Q14680)
[30] = target: PRKAA2 (human) (UniProt P54646)
[31] = target: MAP3K5 (human) (UniProt Q99683)
[32] = target: ACVR1 (human) (UniProt Q04771)
Chain of ACVR1 (human) (Q04771 whole entry, looked up): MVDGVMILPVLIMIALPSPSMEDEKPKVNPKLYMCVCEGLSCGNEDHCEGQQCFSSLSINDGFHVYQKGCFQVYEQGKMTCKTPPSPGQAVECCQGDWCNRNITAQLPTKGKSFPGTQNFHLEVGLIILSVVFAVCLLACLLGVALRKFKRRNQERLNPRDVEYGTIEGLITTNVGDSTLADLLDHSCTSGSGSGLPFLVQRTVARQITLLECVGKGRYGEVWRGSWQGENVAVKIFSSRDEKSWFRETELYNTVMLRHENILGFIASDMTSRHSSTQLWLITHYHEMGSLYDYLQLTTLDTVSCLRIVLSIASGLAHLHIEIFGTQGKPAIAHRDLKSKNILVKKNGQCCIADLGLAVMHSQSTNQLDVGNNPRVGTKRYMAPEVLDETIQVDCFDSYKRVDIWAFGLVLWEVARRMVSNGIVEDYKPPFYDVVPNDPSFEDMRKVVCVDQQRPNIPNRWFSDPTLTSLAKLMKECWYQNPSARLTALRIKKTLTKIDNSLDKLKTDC

[33] = tested on: RET (human), P07949 [M918T]
[34] = target: MYLK (human) (UniProt Q15746)
Chain of MYLK (human) (Q15746 whole entry, looked up): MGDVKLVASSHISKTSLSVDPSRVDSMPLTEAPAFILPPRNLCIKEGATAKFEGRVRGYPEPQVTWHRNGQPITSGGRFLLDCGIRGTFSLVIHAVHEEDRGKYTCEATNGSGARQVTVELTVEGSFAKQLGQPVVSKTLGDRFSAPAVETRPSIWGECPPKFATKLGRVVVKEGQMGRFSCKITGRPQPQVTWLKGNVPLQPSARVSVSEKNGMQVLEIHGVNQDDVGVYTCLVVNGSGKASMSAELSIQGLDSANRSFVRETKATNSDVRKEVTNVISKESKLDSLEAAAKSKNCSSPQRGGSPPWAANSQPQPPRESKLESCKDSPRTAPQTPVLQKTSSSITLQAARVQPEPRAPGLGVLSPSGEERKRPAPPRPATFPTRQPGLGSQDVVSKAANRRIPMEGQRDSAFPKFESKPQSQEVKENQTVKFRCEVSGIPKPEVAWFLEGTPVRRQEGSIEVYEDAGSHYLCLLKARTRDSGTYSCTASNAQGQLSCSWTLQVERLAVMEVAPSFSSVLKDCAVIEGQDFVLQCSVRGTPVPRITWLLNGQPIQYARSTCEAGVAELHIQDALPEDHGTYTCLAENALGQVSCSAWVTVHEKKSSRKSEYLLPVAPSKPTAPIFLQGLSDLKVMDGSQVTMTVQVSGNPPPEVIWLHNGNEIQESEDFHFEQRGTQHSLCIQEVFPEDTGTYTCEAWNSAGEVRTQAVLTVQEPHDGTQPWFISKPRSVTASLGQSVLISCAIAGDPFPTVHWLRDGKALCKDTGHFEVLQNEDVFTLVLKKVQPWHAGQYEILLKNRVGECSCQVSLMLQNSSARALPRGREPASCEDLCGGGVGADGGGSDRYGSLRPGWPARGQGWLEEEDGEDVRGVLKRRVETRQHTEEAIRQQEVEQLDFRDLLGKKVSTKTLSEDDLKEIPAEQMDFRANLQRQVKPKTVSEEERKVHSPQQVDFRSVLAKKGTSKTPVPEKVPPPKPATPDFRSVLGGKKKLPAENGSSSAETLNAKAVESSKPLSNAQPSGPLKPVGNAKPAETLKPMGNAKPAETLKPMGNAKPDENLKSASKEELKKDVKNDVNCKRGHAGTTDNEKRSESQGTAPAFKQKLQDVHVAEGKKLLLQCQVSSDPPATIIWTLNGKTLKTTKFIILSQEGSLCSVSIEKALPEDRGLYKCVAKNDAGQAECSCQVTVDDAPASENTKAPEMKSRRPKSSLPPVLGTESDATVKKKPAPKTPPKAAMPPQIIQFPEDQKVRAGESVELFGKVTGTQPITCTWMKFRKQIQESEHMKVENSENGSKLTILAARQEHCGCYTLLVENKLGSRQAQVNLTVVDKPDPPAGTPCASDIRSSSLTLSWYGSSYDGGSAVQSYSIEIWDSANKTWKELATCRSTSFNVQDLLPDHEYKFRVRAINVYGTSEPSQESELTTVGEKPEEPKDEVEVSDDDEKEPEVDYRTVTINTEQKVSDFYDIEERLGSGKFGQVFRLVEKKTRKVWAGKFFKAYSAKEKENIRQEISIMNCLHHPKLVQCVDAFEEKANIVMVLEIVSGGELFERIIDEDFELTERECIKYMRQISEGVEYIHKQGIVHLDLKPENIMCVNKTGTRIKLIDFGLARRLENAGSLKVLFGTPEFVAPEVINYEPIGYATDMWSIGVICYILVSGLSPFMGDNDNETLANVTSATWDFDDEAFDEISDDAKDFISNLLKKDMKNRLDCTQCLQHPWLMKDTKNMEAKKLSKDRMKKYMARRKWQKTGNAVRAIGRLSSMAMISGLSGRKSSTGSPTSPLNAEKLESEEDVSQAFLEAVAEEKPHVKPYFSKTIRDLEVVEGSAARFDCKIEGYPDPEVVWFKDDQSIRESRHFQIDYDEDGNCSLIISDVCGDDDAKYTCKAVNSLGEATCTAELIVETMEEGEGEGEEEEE

[35] = tested on: BRAF (human), P15056 [V600E]
[36] = target: PIP4K2B (human) (UniProt P78356)
[37] = target: PHKG2 (human) (UniProt P15735)
[38] = target: YSK4 (human) (UniProt Q56UN5)
[39] = target: FGFR2 (human) (UniProt P21802)
[40] = target: EPHA5 (human) (UniProt P54756)
[41] = target: CAMK2B (human) (UniProt Q13554)

kinase still bound, per cent of control [1]: 54% | kinase still bound, per cent of control [2]: 95% | kinase still bound, per cent of control [3]: 46% | kinase still bound, per cent of control [4]: 100% | kinase still bound, per cent of control [5]: 100% | kinase still bound, per cent of control [6]: 100% | kinase still bound, per cent of control [7]: 100% | kinase still bound, per cent of control [8]: 67% | kinase still bound, per cent of control [9]: 100% | kinase still bound, per cent of control [10]: 100% | kinase still bound, per cent of control [11]: 93% | kinase still bound, per cent of control [12]: 79% | kinase still bound, per cent of control [13]: 100% | kinase still bound, per cent of control [14]: 79% | kinase still bound, per cent of control [15]: 78% | kinase still bound, per cent of control [16]: 96% | kinase still bound, per cent of control [17]: 100% | kinase still bound, per cent of control [18]: 83% | kinase still bound, per cent of control [19]: 99% | kinase still bound, per cent of control [20]: 100% | kinase still bound, per cent of control [21]: 100% | kinase still bound, per cent of control [22]: 100% | kinase still bound, per cent of control [23]: 96% | kinase still bound, per cent of control [24]: 100% | kinase still bound, per cent of control [25]: 100% | kinase still bound, per cent of control [26]: 100% | kinase still bound, per cent of control [27]: 100% | kinase still bound, per cent of control [28]: 100% | kinase still bound, per cent of control [29]: 40% | kinase still bound, per cent of control [30]: 56% | kinase still bound, per cent of control [31]: 100% | kinase still bound, per cent of control [32]: 100% | kinase still bound, per cent of control [33]: 100% | kinase still bound, per cent of control [34]: 59% | kinase still bound, per cent of control [35]: 49% | kinase still bound, per cent of control [36]: 98% | kinase still bound, per cent of control [37]: 100% | kinase still bound, per cent of control [38]: 30% | kinase still bound, per cent of control [39]: 98% | kinase still bound, per cent of control [40]: 100%
SMILES: Cc1cnc(-c2cnc(NCCNc3ccc(C#N)cn3)nc2-c2ccc(Cl)cc2Cl)[nH]1

kinase still bound, per cent of control [1]: 100% | kinase still bound, per cent of control [2]: 18% | kinase still bound, per cent of control [3]: 16% | kinase still bound, per cent of control [4]: 90% | kinase still bound, per cent of control [5]: 100% | kinase still bound, per cent of control [6]: 65% | kinase still bound, per cent of control [7]: 79% | kinase still bound, per cent of control [8]: 100% | kinase still bound, per cent of control [9]: 100% | kinase still bound, per cent of control [10]: 100% | kinase still bound, per cent of control [11]: 94% | kinase still bound, per cent of control [12]: 75% | kinase still bound, per cent of control [13]: 56% | kinase still bound, per cent of control [14]: 82% | kinase still bound, per cent of control [15]: 90% | kinase still bound, per cent of control [16]: 83% | kinase still bound, per cent of control [17]: 100% | kinase still bound, per cent of control [18]: 55% | kinase still bound, per cent of control [19]: 100% | kinase still bound, per cent of control [20]: 94% | kinase still bound, per cent of control [21]: 100% | kinase still bound, per cent of control [22]: 100% | kinase still bound, per cent of control [23]: 79% | kinase still bound, per cent of control [24]: 100% | kinase still bound, per cent of control [25]: 86% | kinase still bound, per cent of control [26]: 2.2% | kinase still bound, per cent of control [27]: 93% | kinase still bound, per cent of control [28]: 92% | kinase still bound, per cent of control [29]: 100% | kinase still bound, per cent of control [30]: 52% | kinase still bound, per cent of control [31]: 100% | kinase still bound, per cent of control [32]: 100% | kinase still bound, per cent of control [33]: 100% | kinase still bound, per cent of control [34]: 64% | kinase still bound, per cent of control [35]: 78% | kinase still bound, per cent of control [36]: 86% | kinase still bound, per cent of control [37]: 80% | kinase still bound, per cent of control [41]: 55% | kinase still bound, per cent of control [38]: 12% | kinase still bound, per cent of control [39]: 100% | kinase still bound, per cent of control [40]: 99%
SMILES: Cn1cc(C2=C(c3ccc(Cl)cc3Cl)C(=O)NC2=O)c2ccccc21

kinase still bound, per cent of control [1]: 100% | kinase still bound, per cent of control [2]: 83% | kinase still bound, per cent of control [3]: 86% | kinase still bound, per cent of control [4]: 90% | kinase still bound, per cent of control [5]: 100% | kinase still bound, per cent of control [6]: 86% | kinase still bound, per cent of control [7]: 97% | kinase still bound, per cent of control [8]: 100% | kinase still bound, per cent of control [9]: 97% | kinase still bound, per cent of control [10]: 100% | kinase still bound, per cent of control [11]: 100% | kinase still bound, per cent of control [12]: 95% | kinase still bound, per cent of control [13]: 100% | kinase still bound, per cent of control [14]: 98% | kinase still bound, per cent of control [15]: 52% | kinase still bound, per cent of control [16]: 100% | kinase still bound, per cent of control [17]: 69% | kinase still bound, per cent of control [19]: 100% | kinase still bound, per cent of control [20]: 95% | kinase still bound, per cent of control [21]: 100% | kinase still bound, per cent of control [22]: 98% | kinase still bound, per cent of control [23]: 92% | kinase still bound, per cent of control [24]: 100% | kinase still bound, per cent of control [25]: 100% | kinase still bound, per cent of control [26]: 100% | kinase still bound, per cent of control [27]: 89% | kinase still bound, per cent of control [28]: 100% | kinase still bound, per cent of control [29]: 63% | kinase still bound, per cent of control [30]: 96% | kinase still bound, per cent of control [31]: 71% | kinase still bound, per cent of control [32]: 98% | kinase still bound, per cent of control [33]: 100% | kinase still bound, per cent of control [34]: 100% | kinase still bound, per cent of control [35]: 49% | kinase still bound, per cent of control [36]: 69% | kinase still bound, per cent of control [41]: 100% | kinase still bound, per cent of control [38]: 49% | kinase still bound, per cent of control [39]: 81% | kinase still bound, per cent of control [40]: 100%
SMILES: COc1ccc(CNC(=O)Nc2ncc([N+](=O)[O-])s2)cc1
